Results reported in patent publication EP2380890A1, “New 7,8-dihydro-1,6-naphthyridin-5(6h)-one-derivatives as PDE4 inhibitors” (Almirall, S.A., priority 2010, dated 2011).

Target: PDE4
Experiment: PDE4 assay: [3H] cAMP Scintillation Proximity Assay (SPA) of phosphodiesterase activity
Format: biochemical
Conditions: yeast extract of recombinant PDE4 enzyme, 30 nM [3H] cAMP, 1 h at room temperature, pH 7.5
Protocol: Measurement of Phosphodiesterase Activity was done using a [3H] cAMP Scintillation Proximity Assay (SPA) (GE Healthcare). Compounds to be tested were disolved in DMSO at a stock concentration of 1mM and serial dilutions were prepared in 50% DMSO to determine IC50s.
The reactions were conducted in 96-well plates (Corning, Ref.3604) at room temperature, in 0.1 mL of reaction buffer containing (final concentrations): 50 mM Tris-HCl, pH 7.5, 8.3 mM MgCl2, 1.7 mM EGTA, 30 nM [3H] cAMP (approximately 150000 dpm/well) with or without the inhibitors. The reaction was initiated by adding yeast extract of recombinant PDE4 enzyme.
Plates were shaken for 1 h at room temperature and the incubation was terminated by adding 50 µL (0.5 mg /well) of SPA ytrium silicate beads (RPNQ 0150; GE Healthcare) in the presence of zinc sulfate. Plates were stored overnight in the dark and read on a TRILUX microtiter plate reader (Perkin Elmer).

SMILES	IC50 [nM]
COc1cccc(Nc2cc(-c3cccc(-c4ccc(C(=O)O)cc4)c3)nc3c2C(=O)NCC3)c1 [Example 13, 3'-{4-[(3-Methoxyphenyl)amino]-5-oxo-5,6,7,8-tetrahydro-1,6-naphthyridin-2-yl}biphenyl-4-carboxylic acid]	0.34
NC(=O)c1ccc(Nc2cc(-c3ccccc3)nc3c2C(=O)NCC3)cc1 [Example 18, 4-[(5-Oxo-2-phenyl-5,6,7,8-tetrahydro-1,6-naphthyridin-4-yl)amino]benzamide]	1.5
COc1cccc(Nc2cc(-c3ccncc3)nc3c2C(=O)NCC3)c1 [Example 22, 4-[(3-Methoxyphenyl)amino]-2-pyridin-4-yl-7,8-dihydro-1,6-naphthyridin-5(6H)-one]	3.6
COc1cccc(Nc2cc(-c3ccccc3)nc3c2C(=O)NC(C)C3)c1 (stereo not drawn) [Example 26, 4-[(3-Methoxyphenyl)amino]-7-methyl-2-phenyl-7,8-dihydro-1,6-naphthyridin-5(6H)-one]	117
COc1cccc(Nc2nc(-c3ccccc3)nc3c2C(=O)NCC3)c1 [Example 32, 4-[(3-Methoxyphenyl)amino]-2-phenyl-7,8-dihydropyrido[4,3-d]pyrimidin-5(6H)-one]	52
COc1cccc(Nc2cc(-c3cccc(-c4cc(C(=O)O)ccc4Cl)c3)nc3c2C(=O)NCC3)c1 [Example 35, 6-Chloro-3'-{4-[(3-methoxyphenyl)amino]-5-oxo-5,6,7,8-tetrahydro-1,6-naphthyridin-2-yl}biphenyl-3-carboxylic acid]	0.81
O=C1NCCc2nc(-c3ccccc3)cc(Nc3n[nH]c4ncccc34)c21 [Example 41, 2-Phenyl-4-(1H-pyrazolo[3,4-b]pyridin-3-ylamino)-7,8-dihydro-1,6-naphthyridin-5(6H)-one]	6
COc1cccc(Nc2cc(-c3cccc(-c4cc(C(=O)O)ccc4O)c3)nc3c2C(=O)NCC3)c1 [Example 43, 6-Hydroxy-3'-{4-[(3-methoxyphenyl)amino]-5-oxo-5,6,7,8-tetrahydro-1,6-naphthyridin-2-yl}biphenyl-3-carboxylic acid]	10
O=C(NC1CC1)c1cccc(-c2cccc(-c3cc(Nc4cccc5ncccc45)c4c(n3)CCNC4=O)c2)c1 [Example 49, N-Cyclopropyl-3'-[5-oxo-4-(quinolin-5-ylamino)-5,6,7,8-tetrahydro-1,6-naphthyridin-2-yl]biphenyl-3-carboxamide]	0.17
O=C(NC1CC1)c1cccc(-c2cccc(-c3cc(Nc4cccc5c4ccc[n+]5[O-])c4c(n3)CCNC4=O)c2)c1 [Example 56, N-Cyclopropyl-3'-{4-[(1-oxidoquinolin-5-yl)amino]-5-oxo-5,6,7,8-tetrahydro-1,6-naphthyridin-2-yl}biphenyl-3-carboxamide]	0.05
N#C/N=C1\NCCc2nc(-c3ccc(F)c(F)c3)cc(Nc3cccc4ncccc34)c21 [Example 57, [(5Z)-2-(3,4-Difluorophenyl)-4-(quinolin-5-ylamino)-7,8-dihydro-1,6-naphthyridin-5(6H)-ylidene]cyanamide]	0.9
Cc1c(F)cc(C(=O)NC2CC2)cc1-c1cccc(-c2cc(Nc3cccc4ncccc34)c3c(n2)CCNC3=O)c1 [Example 61, N-Cyclopropyl-5-fluoro-6-methyl-3'-[5-oxo-4-(quinolin-5-ylamino)-5,6,7,8-tetrahydro-1,6-naphthyridin-2-yl]biphenyl-3-carboxamide]	0.05

Continued by falling IC50, values first:

IC50 [nM]	SMILES
640	COc1cccc(Nc2cc(-c3ccccc3)nc3c2C(=O)NCC3C)c1 (stereo not drawn) [Example 44, 4-[(3-Methoxyphenyl)amino]-8-methyl-2-phenyl-7,8-dihydro-1,6-naphthyridin-5(6H)-one]
32	COc1cccc(Nc2cc(-c3ccccc3OC)nc3c2C(=O)NCC3)c1 [Example 9, 2-(2-Methoxyphenyl)-4-[(3-methoxyphenyl)amino]-7,8-dihydro-1,6-naphthyridin-5(6H)-one]
25	O=C1NCCc2nc(-c3ccccc3)cc(NCc3ccncc3)c21 [Example 17, 2-Phenyl-4-[(pyridin-4-ylmethyl)amino]-7,8-dihydro-1,6-naphthyridin-5(6H)-one]
14	O=C1NCCc2nc(-c3ccccc3)cc(Nc3cccc4cnccc34)c21 [Example 37, 4-(Isoquinolin-5-ylamino)-2-phenyl-7,8-dihydro-1,6-naphthyridin-5(6H)-one]
12	O=C1NCCc2nc(-c3ccccc3)cc(Nc3ccc(CCO)cc3)c21 [Example 2, 4-{[4-(2-Hydroxyethyl)phenyl]amino}-2-phenyl-7,8-dihydro-1,6-naphthyridin-5(6H)-one]
9	O=C(O)c1ccc(Nc2cc(-c3ccccc3)nc3c2C(=O)NCC3)cc1 [Example 25, 4-[(5-Oxo-2-phenyl-5,6,7,8-tetrahydro-1,6-naphthyridin-4-yl)amino]benzoic acid]
9	COc1cccc(Nc2cc(C3CC3)nc3c2C(=O)NCC3)c1 [Example 33, 2-Cyclopropyl-4-[(3-methoxyphenyl)amino]-7,8-dihydro-1,6-naphthyridin-5(6H)-one]
9	O=C1NCCc2nc(-c3ccccc3)cc(Nc3ccc(C[C@@H](O)CO)cc3)c21 [Example 47, 4-({4-[(2R)-2,3-dihydroxypropyl]phenyl}amino)-2-phenyl-7,8-dihydro-1,6-naphthyridin-5(6H)-one]
8	COc1cccc(Nc2cc(-c3cccc(OC)c3)nc3c2C(=O)NCC3)c1 [Example 8, 2-(3-Methoxyphenyl)-4-[(3-methoxyphenyl)amino]-7,8-dihydro-1,6-naphthyridin-5(6H)-one]
2.3	COc1cc(Nc2cc(-c3ccccc3)nc3c2C(=O)NCC3)ccc1C(=O)O [Example 19, 2-Methoxy-4-[(5-oxo-2-phenyl-5,6,7,8-tetrahydro-1,6-naphthyridin-4-yl)amino]benzoic acid]
2.3	O=C1NCCc2nc(-c3ccccc3)cc(Nc3ccc4ncccc4c3)c21 [Example 38, 2-Phenyl-4-(quinolin-6-ylamino)-7,8-dihydro-1,6-naphthyridin-5(6H)-one]
1.6	COc1cccc(Nc2cc(-c3ccccc3)nc3c2C(=O)NCC3)c1 [Example 1, 4-[(3-Methoxyphenyl)amino]-2-phenyl-7,8-dihydro-1,6-naphthyridin-5(6H)-one]
1.6	COc1cccc(Nc2cc(-c3cccc(Sc4cccc(OC)c4)c3)nc3c2C(=O)NCC3)c1 [Example 16, 4-[(3-Methoxyphenyl)amino]-2-{3-[(3-methoxyphenyl)thio]phenyl}-7,8-dihydro-1,6-naphthyridin-5(6H)-one]
0.96	O=C1NCCc2nc(-c3ccccc3)cc(Nc3cccc4ncccc34)c21 [Example 24, 2-Phenyl-4-(quinolin-5-ylamino)-7,8-dihydro-1,6-naphthyridin-5(6H)-one]
0.43	O=C1NCCc2nc(-c3ccccc3)cc(Nc3cccc4c3ccc[n+]4[O-])c21 [Example 51, 4-[(1-Oxidoquinolin-5-yl)amino]-2-phenyl-7,8-dihydro-1,6-naphthyridin-5(6H)-one]
0.28	COc1cccc(Nc2cc(-c3cccc(-c4cccc(C(N)=O)c4)c3)nc3c2C(=O)NCC3)c1 [Example 12, 3'-{4-[(3-Methoxyphenyl)amino]-5-oxo-5,6,7,8-tetrahydro-1,6-naphthyridin-2-yl}biphenyl-3-carboxamide]
0.23	COc1cccc(Nc2cc(-c3cccc(-c4cccc(C(=O)NCCN(C)C)c4)c3)nc3c2C(=O)NCC3)c1 [Example 14, N-[2-(Dimethylamino)ethyl]-3'-{4-[(3-methoxyphenyl)amino]-5-oxo-5,6,7,8-tetrahydro-1,6-naphthyridin-2-yl}biphenyl-3-carboxamide]
0.105	CN(C)CCCNC(=O)c1cccc(-c2cccc(-c3cc(Nc4cccc5ncccc45)c4c(n3)CCNC4=O)c2)c1 [Example 59, N-[3-(Dimethylamino)propyl]-3'-[5-oxo-4-(quinolin-5-ylamino)-5,6,7,8-tetrahydro-1,6-naphthyridin-2-yl]biphenyl-3-carboxamide]
